In patent US9718809B2, “Bisarylsulfonamides useful in the treatment of inflammation and cancer” (Kancera AB, priority 2011, dated 2017) one finds IC50 data, which are given here for one compound.

For one assay, the system named is F-2,6-P2 in PANC-1 cells. Briefly: Quantification of F-2,6-P2 (Van Schaftingen coupled enzyme assay) in PANC-1 cells. The format is cell-based, human. The note with it: Homo sapiens; PANC-1 cells; read-out: IC50 based on quantification of F-2,6-P2. Put shortly:
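PANC-1 cells (~25 000/well) starved 18 h in glucose-free 0.25% FBS medium, treated 1 h with compound (50 and 10 μM, or dose response from 50 μM; 0.5% DMSO), then glucose added for 2 h at 37 °C. Cells lysed in NaOH; F-2,6-P2 quantified by PPi-PFK coupled NADH-consumption spectrophotometry.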

The subject of another assay is SW620 cells. Nature of the assay: Inhibition of cancer cell proliferation, total cellular protein (Sulphorhodamine B), SW620. The note with it: Homo sapiens, SW-620, 72 h, read-out: IC50 based on quantitation of total cellular protein after treatment. Here is the method: To assess the antiproliferative response elicited by the compounds of the present invention in different tumour cell lines, total cellular protein in samples was quantified using the Sulphorhodamine B kit, TOX6, (Sigma-Aldrich). The protocol is based on quantitation of total cellular protein after indicated treatments and incubation times using the Sulphorhodamine B kit, TOX6, (Sigma-Aldrich).
Briefly, after protein precipitation using TCA according to the manufacturer's instructions, the sulphorhodamine dye (80 μL/well) was added to the air-dried wells. After 20 min incubation at room temperature, the dye was discarded and the samples were gently rinsed with 1% HOAc until clear. After air drying, bound dye was solubilised in 200 μL 10 mM Tris base, and the absorbance of dye was measured at 565 nm. To quantify growth, samples were collected also at t=0 h, and the resulting absorbance was set to 100%. […]
After protein precipitation using TCA according to the manufacturer's instructions, the sulforhodamine B dye (50 μL/well) was added to the air-dried wells. […] After air drying, bound dye was solubilised in 100 μL 10 mM Tris base, and the absorbance of dye was measured at 530 nm and a background absorbance (subtract from the measurement at 530 nm) at 690 nm. To quantify growth, samples were collected also at t=0 h.

On to `COC(=O)c1ccc(NS(=O)(=O)c2cc(Cl)c(Cl)s2)cc1OC(C)=O` [Example 132, Methyl 2-(acetyloxy)-4-{[(4,5-dichlorothiophen-2-yl)sulfonyl]amino}benzoate], for which the IC50 came to 1500 nM with F-2,6-P2 in PANC-1 cells and 11.8 µM in the assay with SW620 cells.

In general, IC50 refers to the concentration that gives 50% inhibition.
